The values that follow come from BindingDB's records for doi:10.1016/j.bioorg.2016.01.003 (Panjab University, 2016).

Experiment in all cases: Radioligand Binding Assay
The target of one assay is T1, Adenosine receptor A2b (Homo sapiens, UniProt P29275).
T1 sequence (P29275 whole entry): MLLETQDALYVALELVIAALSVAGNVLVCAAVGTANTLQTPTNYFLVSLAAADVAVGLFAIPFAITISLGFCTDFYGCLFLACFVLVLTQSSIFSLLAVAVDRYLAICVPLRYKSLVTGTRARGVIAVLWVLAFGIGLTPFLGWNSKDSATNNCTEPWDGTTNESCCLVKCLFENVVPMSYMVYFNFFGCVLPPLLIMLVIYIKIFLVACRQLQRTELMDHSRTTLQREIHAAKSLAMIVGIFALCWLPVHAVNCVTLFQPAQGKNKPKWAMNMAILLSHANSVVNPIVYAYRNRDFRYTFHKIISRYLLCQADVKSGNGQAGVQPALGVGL

The target in a further assay is Adenosine receptor A2a (Homo sapiens, UniProt P29274). On the procedure:
(§1) Dissociation constants at A1, A2A and A3 receptors (Ki-values) were determined in radioligand competition experiments as reported earlier [19,20]. All binding experiments were done in a microplate format utilizing a 96-well microplate filtration system (Millipore Multiscreen MAFC). As radioligands the agonists [3H]CCPA (1 nM) for A1, [3H]NECA (10 nM) for A2A, and [3H]HEMADO (1 nM) for A3 receptors were used. Samples were incubated with 10 µg of membrane protein for 3 h at 25 °C, filtered through the built-in filter at the bottom of the wells and washed three times with […] of ice-cold binding buffer. After addition of 20 µl of scintillator to the dried filter plates samples were counted in a Wallac Micro-Beta counter. Nonspecific binding was determined in the presence of 1 mM theophylline ([3H]CCPA) or […] (N6-phenylisopropyladenosine; [3H]NECA and [3H] HEMADO).

The target of a further assay is T2, Adenosine receptor A1 (Homo sapiens, UniProt P30542).
T2 sequence (P30542 whole entry): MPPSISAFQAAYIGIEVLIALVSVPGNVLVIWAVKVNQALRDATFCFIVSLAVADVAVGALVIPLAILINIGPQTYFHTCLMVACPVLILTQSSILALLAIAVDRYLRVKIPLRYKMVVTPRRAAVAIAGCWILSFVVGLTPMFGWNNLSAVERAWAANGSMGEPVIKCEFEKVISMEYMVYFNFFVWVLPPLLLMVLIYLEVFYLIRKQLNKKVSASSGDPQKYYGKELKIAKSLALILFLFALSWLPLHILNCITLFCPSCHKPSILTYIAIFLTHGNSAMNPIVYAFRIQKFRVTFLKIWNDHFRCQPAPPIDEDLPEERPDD
Here is the method:
as §1

Adenosine receptor A2a, sequence (P29274 whole entry): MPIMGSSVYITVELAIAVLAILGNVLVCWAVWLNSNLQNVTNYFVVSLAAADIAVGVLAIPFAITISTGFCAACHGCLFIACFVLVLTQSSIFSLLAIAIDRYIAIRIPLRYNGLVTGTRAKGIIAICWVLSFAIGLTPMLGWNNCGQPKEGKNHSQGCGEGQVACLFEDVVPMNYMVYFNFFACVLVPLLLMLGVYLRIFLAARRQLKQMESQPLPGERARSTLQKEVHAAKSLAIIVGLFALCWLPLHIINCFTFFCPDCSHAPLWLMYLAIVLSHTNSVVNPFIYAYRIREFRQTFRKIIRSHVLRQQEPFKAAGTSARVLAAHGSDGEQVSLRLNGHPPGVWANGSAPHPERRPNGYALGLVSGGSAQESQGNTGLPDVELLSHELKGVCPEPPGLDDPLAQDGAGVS

In the case of `COC(=O)COc1cccc(-c2nc3c([nH]2)c(=O)n(C)c(=O)n3C)c1` [1,3-Dimethyl-8-[3-(2-methoxy-2-oxoethoxy)-phenyl]xanthine (14, RB-374)], the Ki is greater than 10 µM on Adenosine receptor A2b, 375 nM on Adenosine receptor A2a and 3950 nM on Adenosine receptor A1.
In the same order, the values of `COc1cc(-c2nc3c([nH]2)c(=O)n(C)c(=O)n3C)ccc1OCC(=O)N1CCN(C)CC1` [1,3-Dimethyl-8-[3-methoxy-4-{2-(1-methylpiperazin-4-yl)-2-oxoethoxy}-phenyl]-xanthine (15g, RB-446)] are greater than 10 µM, 4210 nM and greater than 30000 nM.
In the same order, the values of `COc1cc(-c2nc3c([nH]2)c(=O)n(C)c(=O)n3C)ccc1OCC(=O)N1CCOCC1` [1,3-Dimethyl-8-[3-methoxy-4-{2-(morpholin-1-yl)-2-oxoethoxy}-phenyl]xanthine (15f, RB-385)] are greater than 30 µM, 2740 nM and greater than 30000 nM.
In the case of `COc1cc(-c2nc3c([nH]2)c(=O)n(C)c(=O)n3C)ccc1OCC(=O)N1CCCCC1` [1,3-Dimethyl-8-[3-methoxy-4-{2-(piperidin-1-yl)-2-oxoethoxy}-phenyl]xanthine (15d, RB-391)], the Ki was greater than 10 µM on Adenosine receptor A2b, 3350 nM at Adenosine receptor A2a and greater than 30000 nM on Adenosine receptor A1.
In the same order, the values of `COc1cc(-c2nc3c([nH]2)c(=O)n(C)c(=O)n3C)ccc1OCC(=O)N1CCCC1` [1,3-Dimethyl-8-[3-methoxy-4-{2-(pyrrolidin-1-yl)-2-oxoethoxy}-phenyl]xanthine (15c, RB-392)] are greater than 30 µM, 4570 nM and greater than 30000 nM.
In the case of `CN1CCN(C(=O)COc2cccc(-c3nc4c([nH]3)c(=O)n(C)c(=O)n4C)c2)CC1` [1,3-Dimethyl-8-[3-{2-(1-methylpiperazin-4-yl)-2-oxoethoxy}-phenyl]xanthine (14g, RB-380)], the inhibition constant Ki at Adenosine receptor A2b was determined as 8.21 µM; on Adenosine receptor A2a, 561 nM; at Adenosine receptor A1 it was 1900 nM.
As to `CN(C)CCNC(=O)COc1cccc(-c2nc3c([nH]2)c(=O)n(C)c(=O)n3C)c1` [1,3-Dimethyl-8-[3-{2-(dimethylaminoethylamino)-2-oxoethoxy}-phenyl]xanthine (14a, RB-379)], the Ki was determined as 2.83 µM on Adenosine receptor A2b, 163 nM on Adenosine receptor A2a and 683 nM at Adenosine receptor A1.
In the case of `Cn1c(=O)c2[nH]c(-c3cccc(OCC(=O)N4CCCCCC4)c3)nc2n(C)c1=O` [1,3-Dimethyl-8-[3-{2-(hexamethyleneimin-1-yl)-2-oxoethoxy}-phenyl]xanthine (14e, RB-376)], the Ki on Adenosine receptor A2b is 6.28 µM; on Adenosine receptor A2a, 226 nM; on Adenosine receptor A1, 2430 nM.
As to `COc1ccc(CCNC(=O)COc2cccc(-c3nc4c([nH]3)c(=O)n(C)c(=O)n4C)c2)cc1OC` [1,3-Dimethyl-8-[3-{2-(homoveratrylamino)-2-oxoethoxy}-phenyl]xanthine (14i, RB-377)], the Ki is greater than 10 µM at Adenosine receptor A2b, 1390 nM at Adenosine receptor A2a and 5980 nM on Adenosine receptor A1.
As to `Cn1c(=O)c2[nH]c(-c3cccc(OCC(=O)n4ccnc4)c3)nc2n(C)c1=O` [1,3-Dimethyl-8-[3-{2-(imidazol-1-yl)-2-oxoethoxy}-phenyl]xanthine (14h, RB-445)], the inhibitory constant (Ki) on Adenosine receptor A2b is greater than 30 µM; on Adenosine receptor A2a it was 509 nM; at Adenosine receptor A1 it was greater than 30000 nM.
Take `Cn1c(=O)c2[nH]c(-c3cccc(OCC(=O)N4CCOCC4)c3)nc2n(C)c1=O` [1,3-Dimethyl-8-[3-{2-(morpholin-1-yl)-2-oxoethoxy}-phenyl]xanthine (14f, RB-375)]: the Ki at Adenosine receptor A2b was greater than 10 µM; at Adenosine receptor A2a it was 679 nM; at Adenosine receptor A1, 5370 nM.
As to `Cn1c(=O)c2[nH]c(-c3cccc(OCC(=O)N4CCCCC4)c3)nc2n(C)c1=O` [1,3-Dimethyl-8-[3-{2-(piperidin-1-yl)]-2-oxoethoxy}-phenyl]xanthine (14d, RB-382)], the Ki at Adenosine receptor A2b came to 4.04 µM; on Adenosine receptor A2a it was 209 nM; on Adenosine receptor A1 it was 1520 nM.
Take `Cn1c(=O)c2[nH]c(-c3cccc(OCC(=O)N4CCCC4)c3)nc2n(C)c1=O` [1,3-Dimethyl-8-[3-{2-(pyrrolidin-1-yl)-2-oxoethoxy}-phenyl]xanthine (14c, RB-381)]: the figures for the Ki at Adenosine receptor A2b, on Adenosine receptor A2a and on Adenosine receptor A1 were greater than 10 µM, 237 nM and 3290 nM, respectively.
On to `COC(=O)COc1ccc(-c2nc3c([nH]2)c(=O)n(C)c(=O)n3C)cc1` [1,3-Dimethyl-8-[4-(2-methoxy-2-oxoethoxy)-phenyl]xanthine (13, RB-419)], for which the Ki turned out to be 0.98 µM at Adenosine receptor A2b, 170 nM at Adenosine receptor A2a and 319 nM on Adenosine receptor A1.
`COc1ccc(-c2nc3c([nH]2)c(=O)n(C)c(=O)n3C)cc1OCC(=O)N1CCN(C)CC1` [1,3-Dimethyl-8-[4-methoxy-3-{2-(1-methylpiperazin-4-yl)-2-oxo-ethoxy}-phenyl]xanthine (16g, RB-416)]: the figures for the Ki on Adenosine receptor A2b, at Adenosine receptor A2a and on Adenosine receptor A1 were 6.54 µM, 685 nM and 3640 nM, respectively.
On the same counts, the results for `COc1ccc(-c2nc3c([nH]2)c(=O)n(C)c(=O)n3C)cc1OCC(=O)N1CCCCC1` [1,3-Dimethyl-8-[4-methoxy-3-{2-(piperidin-1-yl)-2-oxoethoxy}-phenyl]xanthine (16d, RB-417)] are greater than 10 µM, 76 nM and 1620 nM.
Take `COc1ccc(-c2nc3c([nH]2)c(=O)n(C)c(=O)n3C)cc1OCC(=O)N1CCCC1` [1,3-Dimethyl-8-[4-methoxy-3-{2-(pyrrolidin-1-yl)-2-oxoethoxy}-phenyl]xanthine (16c, RB-414)]: the values for the Ki on Adenosine receptor A2b, on Adenosine receptor A2a and at Adenosine receptor A1 were greater than 10 µM, 259 nM and 5940 nM, respectively.
On to `COc1ccc(-c2nc3c([nH]2)c(=O)n(C)c(=O)n3C)cc1OCC(=O)N1CCOCC1` [1,3-Dimethyl-8-[4-methoxy-3-{(2-(morpholin-1-yl)-2-oxoethoxy}-phenyl]-xanthine (16f, RB-415)], for which the Ki on Adenosine receptor A2b was greater than 10 µM; at Adenosine receptor A2a, 466 nM; at Adenosine receptor A1, 3510 nM.
With `CN(C)CCNC(=O)COc1ccc(-c2nc3c([nH]2)c(=O)n(C)c(=O)n3C)cc1` [1,3-Dimethyl-8-[4-{2-(dimethylaminoethylamino)-2-oxoethoxy}-phenyl]xanthine (13a, RB-420)], the results for the Ki on Adenosine receptor A2b, on Adenosine receptor A2a and on Adenosine receptor A1 were 0.903 µM, 100 nM and 220 nM, respectively.
In the same order, the values of `Cn1c(=O)c2[nH]c(-c3ccc(OCC(=O)N4CCCCCC4)cc3)nc2n(C)c1=O` [1,3-Dimethyl-8-[4-{2-(hexamethyleneimin-1-yl)-2-oxoethoxy}-phenyl]xanthine (13e, RB-424)] are 0.443 µM, 273 nM and 609 nM.
Consider `Cn1c(=O)c2[nH]c(-c3ccc(OCC(=O)N4CCCCC4)cc3)nc2n(C)c1=O` [1,3-Dimethyl-8-[4-{2-(piperidin-1-yl)-2-oxoethoxy}-phenyl]xanthine (13d, RB-427)], for which the Ki on Adenosine receptor A2b stood at 0.401 µM; at Adenosine receptor A2a, 178 nM; on Adenosine receptor A1, 419 nM.
Turning to `Cn1c(=O)c2[nH]c(-c3ccc(OCC(=O)N4CCCC4)cc3)nc2n(C)c1=O` [1,3-Dimethyl-8-[4-{2-(pyrrolidin-1-yl)-2-oxoethoxy}-phenyl]xanthine (13c, RB-426)], the inhibition constant (Ki) on Adenosine receptor A2b is 1.49 µM; on Adenosine receptor A2a, 122 nM; at Adenosine receptor A1 it was 796 nM.
For `COc1ccc(-c2nc3c([nH]2)c(=O)n(C)c(=O)n3C)cc1OCC(=O)NCCN(C)C` [1,3-Dimethyl-8-[{3-(2-(dimethylaminoethylamino)-2-oxoethoxy)-4-methoxy}-phenyl]-xanthine (16a, RB-413)], the Ki on Adenosine receptor A2b worked out at 4.8 µM; on Adenosine receptor A2a, 75 nM; at Adenosine receptor A1 it was 847 nM.
As to `COc1ccc(-c2nc3c([nH]2)c(=O)n(C)c(=O)n3C)cc1OCC(=O)N1CCCCCC1` [1,3-Dimethyl-8-[{3-(2-(hexamethyleneimin-1-yl)-2-oxoethoxy)-4-methoxy}-phenyl]xanthine (16e, RB-449)], the Ki worked out at 3.94 µM at Adenosine receptor A2b, 94 nM on Adenosine receptor A2a and 1910 nM at Adenosine receptor A1.
Regarding `COc1ccc(CCNC(=O)COc2cc(-c3nc4c([nH]3)c(=O)n(C)c(=O)n4C)ccc2OC)cc1OC` [1,3-Dimethyl-8-[{3-(2-(homoveratrylamino)-2-oxoethoxy)-4-methoxy}-phenyl]xanthine (16i, RB-412)], the Ki on Adenosine receptor A2b is greater than 30 µM; on Adenosine receptor A2a, 772 nM; at Adenosine receptor A1, greater than 30000 nM.
